Laboratory results published in the OPERA property sets (Mansouri et al. 2018).

Details: not given

SMILES	boiling point [°C]	melting point [°C]	log10 vapour pressure (mmHg)	ready biodegradability	log10 Henry constant (atm·m³/mol)	log10 Koc (L/kg)	log10 Koa	log10 biodegradation half-life (days)	logP
CC(C)(C)C(=O)C(=O)O	189	90.5	–	–	–	–	–	–	–
Clc1ccc(CSc2ccc(Cl)cc2)cc1	–	75	–	–	–	–	–	–	–
CC1=CCCCCC1	136	–	–	–	–	–	–	–	–
OCCn1ccnc1	–	39	–	–	–	–	–	–	–
CCCC[N+](=O)[O-]	153	-81.3	0.579	–	–	–	–	–	–
CCSc1ccccc1	205	–	–	–	–	–	–	–	–
CCCCNC	91	-75	–	–	–	–	–	–	–
CCN1C(=O)c2ccccc2C1Nc1ccc(OCCN2CCCCC2)cc1 (stereo not drawn)	–	106	–	–	–	–	–	–	–
C[C@@H](O)CC(=O)O	–	47.5	–	–	–	–	–	–	–
O=C(O)c1cc(Cl)c(O)c(Cl)c1	–	265	–	–	–	–	–	–	–
Oc1c(Br)c(Br)c(Br)c(Br)c1Br	–	230	–	not readily biodegradable	–	–	–	–	–
O=C(Nc1ccc(Cl)c(Cl)c1)c1cc(Cl)cc(Cl)c1O	–	161	–	–	–	–	–	–	–
Fc1c(F)c(F)c(C(F)(F)F)c(F)c1F	104	-65.6	1.46	–	–	–	–	–	–
CN(C)c1nc(N(C)C)nc(N(C)C)n1	–	173	–	–	–	–	–	–	–
Cc1ccc(C(=O)Cl)cc1	226	-3	–	–	–	–	–	–	–
Ic1cccc(I)c1I	–	116	–	–	–	–	–	–	–
CCCCC=C(C)C	123	–	1.25	–	–	–	–	–	–
CC(C)CC(=O)O	176	-29.3	-0.356	readily biodegradable	-6.08	–	–	–	–
CC1CO1 (stereo not drawn)	35	-112	2.73	readily biodegradable	–	–	–	–	–
CCC(Oc1c(I)cc(I)cc1I)C(=O)O (stereo not drawn)	–	124	–	–	–	–	–	–	–
C/C=C/c1cc2c(c(=O)o1)C(=O)[C@@H](O)[C@H](C)O2	–	222	–	–	–	–	–	–	–
CC(S)C(=O)NCC(=O)O (stereo not drawn)	–	96	–	–	–	–	–	–	–
CCCCCCC(=O)OC	174	-56	–	–	–	–	–	–	–
C[C@H]1C[C@H]1C(=O)O	191	–	–	–	–	–	–	–	–
Fc1cc2c(cc1F)Oc1cc(Cl)c(Cl)cc1O2	–	223	-7.76	–	–	–	–	–	–
CC[C@H]1C[N@@]2CC[C@H]1C[C@H]2[C@H](O)c1ccnc2ccc(OC)cc12	–	170	–	–	–	–	–	–	–

SMILES	boiling point [°C]	melting point [°C]	log10 vapour pressure (mmHg)	ready biodegradability	log10 Henry constant (atm·m³/mol)	log10 Koc (L/kg)	log10 Koa	log10 biodegradation half-life (days)	logP
CC1C=CCC1 (stereo not drawn)	64.9	–	–	–	–	–	–	–	–
CCOC(=O)C(CC)C(C)=O (stereo not drawn)	198	–	–	–	–	–	–	–	–
C=C1CC2CC1CC2(C)C (stereo not drawn)	152	–	–	–	–	–	–	–	–
CCNc1nsc2ccccc12	–	78	–	–	–	–	–	–	–
C[Si](C)(C)N[Si](C)(C)C	125	–	1.14	–	–	–	–	–	–
C=C[C@H]1CN2CCC1C[C@@H]2[C@@H](O)c1ccnc2ccccc12 (stereo partly drawn)	–	238	–	–	–	–	–	–	–
CCOC(=O)CS	157	–	–	–	–	–	–	–	–
COc1ccc(C[C@H]2c3cc(OC)c(OC)cc3CCN2C)cc1OC	–	89	–	–	–	–	–	–	–
CCCCCCC#N	183	–	–	–	–	–	–	–	–
CCC(C)n1c(=O)[nH]c(C)c(Br)c1=O (stereo not drawn)	–	158	-6.51	–	–	1.6	–	–	–
Clc1cccc(C(Cl)(Cl)Cl)n1	–	63	-2.32	–	–	2.62	–	–	–
CCC(C(C)=O)C(=O)OC (stereo not drawn)	182	–	–	–	–	–	–	–	–
FC(F)(F)C(F)(C(F)(F)F)C(F)(F)F	0	–	–	–	–	–	–	–	–
N#Cc1cccc(N)c1	289	54.3	–	–	–	–	–	–	–
O=S(=O)(Cl)CCCl	202	–	–	–	–	–	–	–	–
COC(=O)c1ccccc1C(=O)c1ccccc1	351	52	–	not readily biodegradable	–	–	–	–	–
OC(C1=CC(=C(c2ccccn2)c2ccccn2)C=C1)(c1ccccn1)c1ccccn1	–	147	–	–	–	–	–	–	–
C=CC1=CCCCC1	145	–	–	–	–	–	–	–	–
CC(C)CCC#N	156	-51	–	–	–	–	–	–	–
Oc1ccc(C(F)(F)F)cc1	–	46	–	–	–	–	–	–	–
Cc1ccc(C(=O)c2ccccc2C(=O)O)cc1	–	146	–	–	–	–	–	–	–
CCC(C)CCC(C)CC (stereo not drawn)	161	–	–	–	–	–	–	–	–
CC[N+](CC)(CCOc1ccc(C(C)(C)CC(C)(C)C)cc1)Cc1ccccc1.[Cl-]	–	113	–	–	–	–	–	–	–
CC(O)Cn1cnc2c1c(=O)n(C)c(=O)n2C (stereo not drawn)	–	136	–	–	–	–	–	–	–
Brc1ccc(Oc2cccc(Br)c2)cc1	–	–	–	–	–	–	8.57	–	–
CCOC(=O)C=C(C)C(=O)OCC	228	–	–	–	–	–	–	–	–

SMILES	boiling point [°C]	melting point [°C]	log10 vapour pressure (mmHg)	ready biodegradability	log10 Henry constant (atm·m³/mol)	log10 Koc (L/kg)	log10 Koa	log10 biodegradation half-life (days)	logP
Clc1c(Cl)c(Cl)c2c(oc3c(Cl)c(Cl)c(Cl)c(Cl)c32)c1Cl	–	258	-11.4	–	–	–	11.9	–	–
OCCBr	150	–	–	–	–	–	–	–	–
O=C(OC(=O)C(F)(F)C(F)(F)C(F)(F)F)C(F)(F)C(F)(F)C(F)(F)F	106	-43	–	–	–	–	–	–	–
Clc1cc(-c2c(Cl)c(Cl)cc(Cl)c2Cl)c(Cl)c(Cl)c1Cl	–	–	–	–	-5	–	–	–	–
O=C(Cl)c1ccc(Cl)cc1	222	16	–	–	–	–	–	–	–
Clc1cc(Cl)cc(-c2c(Cl)c(Cl)cc(Cl)c2Cl)c1	–	–	–	–	-4.54	–	–	–	–
CCCCCCCCCCCCCCCCCC(=O)OC[C@@H](O)[C@H]1OC[C@H](O)[C@H]1O	–	57	–	–	–	–	–	–	–
c1cc2c(c3c1CCCC3)CCCC2	295	16.7	–	–	–	–	–	–	–
CCOc1ccc2nc3cc(N)ccc3c(N)c2c1	–	226	–	–	–	–	–	–	–
Nc1cn[nH]c1	–	81	–	–	–	–	–	–	–
CCC(N)C(=O)O (stereo not drawn)	–	304	–	–	–	–	–	–	–
CCCCOC(=O)CCC(=O)O	–	8.6	–	–	–	–	–	–	–
COc1ccc(CC=O)cc1	256	–	–	–	–	–	–	–	–
CC(C)[C@H](C(=O)OC(C#N)c1cccc(Oc2ccccc2)c1)c1ccc(OC(F)F)cc1 (stereo partly drawn)	–	–	-8.06	–	–	5	–	–	–
Cc1cccc(C)c1	139	-47.8	0.919	readily biodegradable	-2.14	2.25	3.78	1	–
O=c1cc(O)c2ccccc2o1	–	214	–	–	–	–	–	–	–
O=C(O)C1C(c2ccccc2)C(C(=O)O)C1c1ccccc1 (stereo not drawn)	–	228	–	–	–	–	–	–	–
Oc1nc(O)c2nccnc2n1	–	348	–	–	–	–	–	–	–
CC(=O)OO[N+](=O)[O-]	106	–	–	–	-3.56	–	–	–	–
CSB(C)C	71	-84	–	–	–	–	–	–	–
CCCOC=O	80.9	-92.9	1.92	–	–	–	2.66	–	–
CCCCCCCCCCCCCCCC(=O)OCC	–	24	-4.63	–	–	–	–	–	–
O=CCCCl	130	–	–	–	–	–	–	–	–
COc1ccc(CC(=O)O)cc1	–	87	–	–	–	–	–	–	–
CN(C)c1ccc(O)cc1	–	77	–	–	–	–	–	–	–
Clc1cccc(-c2c(Cl)c(Cl)c(Cl)c(Cl)c2Cl)c1	–	–	–	–	-4.7	–	–	–	–

SMILES	boiling point [°C]	melting point [°C]	log10 vapour pressure (mmHg)	ready biodegradability	log10 Henry constant (atm·m³/mol)	log10 Koc (L/kg)	log10 Koa	log10 biodegradation half-life (days)	logP
Cc1ccc(O)c(O)c1	251	65	–	not readily biodegradable	–	–	–	–	–
O=c1[nH]ncc2ccccc12	–	188	–	–	–	–	–	–	–
O=C(Nc1ccc(Cl)c(Cl)c1)Nc1cc(Cl)ccc1Oc1ccc(Cl)cc1S(=O)(=O)[O-].[Na+]	–	223	–	–	–	–	–	–	–
CCC[C@](C)(O)CC	143	–	0.291	–	–	–	–	–	–
CC(=O)Oc1ccc(Cl)cc1Cl	244	–	–	–	–	–	–	–	–
COCCOc1cnc(NS(=O)(=O)c2ccccc2)nc1	–	153	–	–	–	–	–	–	–
CCCCc1c(C)nc(NCC)nc1OS(=O)(=O)N(C)C	–	50.5	-6.12	–	–	–	–	–	–
NS(=O)(=O)c1cc2c(s1)S(=O)(=O)CCC2=O	–	242	–	–	–	–	–	–	–
OC(c1ccccc1)c1ccc(Cl)cc1 (stereo not drawn)	–	60.8	–	–	–	–	–	–	–
CCOc1cccc(F)c1	172	-27.5	–	–	–	–	–	–	–
O=[N+]([O-])c1c(Cl)cccc1Cl	–	72.5	–	–	–	–	–	–	–
Cc1cc[nH]n1	204	36.5	–	–	–	–	–	–	–
c1ccc(CNCCNCc2ccccc2)cc1	–	26	–	–	–	–	–	–	–
Cc1[nH]c2ccccc2c1C	285	106	–	–	–	–	–	–	–
ClCc1ccc(CCl)cc1	–	100	–	–	–	–	–	–	–
O=C(O)c1cc(Cl)c(C(=O)O)cc1Cl	–	306	–	–	–	–	–	–	–
Oc1cc(Cl)ccc1Cl	211	59	-1.25	not readily biodegradable	–	–	–	–	–
CCC(C)(C)Cl	85.5	-73.5	–	–	–	–	–	–	–
CCc1nccnc1OC	–	–	–	–	-4.83	–	–	–	–
CCCCCCCC/C=C/CCCCCCCC(=O)O	–	29.2	–	–	–	–	–	–	–
NCc1ccncc1	230	-7.6	–	–	–	–	–	–	–
N#CCc1ccccc1C(F)(F)F	–	33	–	–	–	–	–	–	–
Cl.Cl.Cl.Cl.Nc1ccc(-c2ccc(N)c(N)c2)cc1N	–	179	–	–	–	–	–	–	–
CCC(N)(CO)CO	–	37.5	–	not readily biodegradable	–	–	–	–	–
CCCCC(CC)CC	143	-115	–	–	–	–	–	–	–
CCc1sccc1C	161	–	–	–	–	–	–	–	–

SMILES	boiling point [°C]	melting point [°C]	log10 vapour pressure (mmHg)	ready biodegradability	log10 Henry constant (atm·m³/mol)	log10 Koc (L/kg)	log10 Koa	log10 biodegradation half-life (days)	logP
N#Cc1ccccc1Cl	232	46.3	–	not readily biodegradable	–	–	–	–	–
Ic1ccc(I)s1	–	41.5	–	–	–	–	–	–	–
COc1ccc(C(=O)c2ccccc2C(=O)O)cc1	–	146	–	–	–	–	–	–	–
CCC(=O)OCc1ccco1	195	–	–	–	–	–	–	–	–
NNC=O	–	55	–	–	–	–	–	–	–
O=CNC(O)C(Cl)(Cl)Cl (stereo not drawn)	–	120	–	–	–	–	–	–	–
CCC(C)(CC)CC(C)C	161	–	–	–	–	–	–	–	–
C=CCCCCCCCCCCC=C	–	–	–	–	–	–	–	1.11	–
C(=Cc1ccncc1)c1ccccc1	–	–	–	readily biodegradable	–	–	–	–	–
c1ccc2nc3ccccc3cc2c1	346	108	-3.87	–	–	4.18	–	–	–
Cc1ccc2cccnc2c1	258	39	-2.05	–	–	–	–	–	–
Cc1ccc(CCN)cc1	214	–	–	–	–	–	–	–	–
O=c1n(CCO)c(=O)n(CCO)c(=O)n1CCO	–	–	–	not readily biodegradable	–	–	–	–	–
ClC1=C(Cl)C(Cl)(Cl)C(Cl)=C1Cl	239	-9	-1.22	not readily biodegradable	-1.57	–	–	–	–
OCCOc1ccc(N=Nc2ccccc2)cc1	–	–	-7.67	–	–	–	–	–	–
CC=CC=CCO	–	30.5	–	–	–	–	–	–	–
CCF	-37.6	-143	3.84	–	–	–	–	–	–
Brc1ccc(Oc2ccccc2Br)c(Br)c1	–	–	–	–	–	–	–	–	5.74
CCCCCCCCCCCCOS(=O)(=O)c1ccccc1	–	–	–	readily biodegradable	–	–	–	–	–
O=C(O)CP(=O)(O)O	–	144	–	–	–	–	–	–	–
CCC(Cl)C(C)Cl (stereo not drawn)	139	-77.3	–	–	–	–	–	–	–
Nc1cccc(C(=O)O)c1	–	173	–	not readily biodegradable	–	–	–	–	–
C[C@H](CS)C(=O)N1CCC[C@H]1C(=O)O	–	106	–	–	–	–	–	–	–
C=CCC1(CC=C)C(=O)NC(=O)NC1=O	–	172	–	–	–	–	–	–	–
CCCCCCCCCCCCCCCCCl	322	17.9	-4.21	–	–	–	–	–	–
C[Si](Cl)(c1ccccc1)c1ccccc1	295	–	–	–	–	–	–	–	–

Same assay, conditions: fish

SMILES	log10 BCF	log10 biotransformation half-life (days)
CCC(C)n1c(=O)[nH]c(C)c(Br)c1=O (stereo not drawn)	0.51	-1.33
COC(=O)c1ccccc1C(=O)c1ccccc1	1.15	-1.3
Clc1c(Cl)c(Cl)c2c(oc3c(Cl)c(Cl)c(Cl)c(Cl)c32)c1Cl	2.89	1.22
Clc1cc(-c2c(Cl)c(Cl)cc(Cl)c2Cl)c(Cl)c(Cl)c1Cl	–	2.47
c1cc2c(c3c1CCCC3)CCCC2	–	0.76
Cc1cccc(C)c1	1.17	–
OC(c1ccccc1)c1ccc(Cl)cc1 (stereo not drawn)	1.79	-0.89
Oc1cc(Cl)ccc1Cl	1.01	–
Sc1nc2ccccc2[nH]1	0.41	–
Clc1cc(Cl)c2c(oc3c(Cl)cc(Cl)c(Cl)c32)c1Cl	2.96	–
c1ccc2nc3ccccc3cc2c1	2.1	–
O=c1n(CCO)c(=O)n(CCO)c(=O)n1CCO	0.2	–
